{"source": "ChEMBL document CHEMBL1128794", "about": "“Rational design of irreversible, pseudo-C2-symmetric hiv-1 protease inhibitors” (Bioorg Med Chem Lett, 1995)", "key": {"[1]": {"tested_on": "SUP-T1", "test": "Tested for the inhibitory activity against HIV-1 in Sup T1 cell lines assessed by syncytium formation and reverse transcriptase assay", "assay_type": "functional, cell-based", "details": "Homo sapiens"}, "[2]": {"tested_on": "H9", "test": "Tested for the inhibitory activity against HIV-1 in H-9 cell lines assessed by syncytium formation and reverse transcriptase assay", "assay_type": "functional, cell-based", "details": "Homo sapiens"}, "[3]": {"biological_target": "Human immunodeficiency virus type 1 protease (Human immunodeficiency virus 1, UniProt Q72874)", "test": "Compound was tested for the inhibition activity against HIV-1 protease"}, "[4]": {"biological_target": "Human immunodeficiency virus type 1 protease (Human immunodeficiency virus 1) (UniProt Q72874)", "test": "Ratio of inactivation constant (Kina) and inhibition constant (Ki) was determined"}, "[5]": {"biological_target": "Human immunodeficiency virus type 1 protease (Human immunodeficiency virus 1) (UniProt Q72874)", "test": "Rate of irreversible inactivation of HIV 1 protease by the compound was determined"}, "[6]": {"tested_on": "H9", "test": "50% Cytoxic value against HIV-1 in H-9 cell lines was evaluated", "assay_type": "functional, Homo sapiens"}, "[7]": {"tested_on": "SUP-T1", "test": "50% Cytoxic value against HIV-1 in Sup T1 cell lines was evaluated", "assay_type": "functional, Homo sapiens"}, "[8]": {"tested_on": "H9", "test": "Tested for the inhibitory activity against HIV-1 in H-9 and Sup T1 cell lines assessed by syncytium formation and reverse transcriptase assay", "assay_type": "functional, cell-based", "details": "Homo sapiens"}}, "data": [{"smiles": "Cc1cn([C@H]2C[C@H](N=[N+]=[N-])[C@@H](CO)O2)c(=O)[nH]c1=O", "note": "[ZIDOVUDINE]", "values": [{"measurement": "IC50", "setting": "[1]", "value": 50, "unit": "nM"}, {"measurement": "IC50", "setting": "[2]", "value": 50, "unit": "nM"}]}, {"smiles": "CC(C)[C@H](NC(=O)N(C)Cc1ccccn1)C(=O)N[C@@H](Cc1ccccc1)[C@@H](O)[C@H](O)[C@H](Cc1ccccc1)NC(=O)[C@@H](NC(=O)N(C)Cc1ccccn1)C(C)C", "values": [{"measurement": "Ki", "setting": "[3]", "value": "< 1", "unit": "nM"}]}, {"smiles": "CC(C)[C@H](NC(=O)OCc1ccncc1)C(=O)NC[C@@H]1O[C@@H]1[C@H](Cc1ccccc1)NC(=O)[C@H](NC(=O)OCc1ccncc1)C(C)C", "values": [{"measurement": "Ki", "setting": "[3]", "value": 300, "unit": "nM"}, {"measurement": "K inact/Ki", "setting": "[4]", "value": 5670, "unit": "M⁻¹ s⁻¹"}]}, {"smiles": "CC(C)[C@H](NC(=O)OCc1cccnc1)C(=O)NC[C@@H]1O[C@@H]1[C@H](Cc1ccccc1)NC(=O)[C@H](NC(=O)OCc1cccnc1)C(C)C", "values": [{"measurement": "Ki", "setting": "[3]", "value": 70, "unit": "nM"}, {"measurement": "K inact/Ki", "setting": "[4]", "value": 23300, "unit": "M⁻¹ s⁻¹"}]}, {"smiles": "CC(C)[C@H](NC(=O)OCc1ccccn1)C(=O)NC[C@@H]1O[C@@H]1[C@H](Cc1ccccc1)NC(=O)[C@H](NC(=O)OCc1ccccn1)C(C)C", "values": [{"measurement": "Ki", "setting": "[3]", "value": 11, "unit": "nM"}, {"measurement": "K inact/Ki", "setting": "[4]", "value": 383000, "unit": "M⁻¹ s⁻¹"}]}, {"smiles": "CC(C)[C@H](NC(=O)OCc1ccccc1)C(=O)N[C@@H](Cc1ccccc1)[C@H](O)[C@H](O)[C@H](Cc1ccccc1)NC(=O)[C@@H](NC(=O)OCc1ccccc1)C(C)C", "values": [{"measurement": "Ki", "setting": "[3]", "value": "< 1", "unit": "nM"}]}, {"smiles": "CC(C)[C@H](NC(=O)OCc1ccccc1)C(=O)N[C@@H](Cc1ccccc1)C1OC1[C@H](Cc1ccccc1)NC(=O)[C@@H](NC(=O)OCc1ccccc1)C(C)C", "note": "(some centres undefined)", "values": [{"measurement": "Ki", "setting": "[3]", "value": 75, "unit": "nM"}]}, {"smiles": "O=[N+]([O-])c1ccc(OCC2CO2)cc1", "note": "(centres undefined)", "values": [{"measurement": "Kina", "setting": "[5]", "value": 0.004, "unit": "min⁻¹"}]}, {"smiles": "CC(C)(C)NC(=O)[C@@H]1C[C@@H]2CCCC[C@@H]2CN1C[C@@H](O)[C@H](Cc1ccccc1)NC(=O)[C@H](CC(N)=O)NC(=O)c1ccc2ccccc2n1", "note": "[SAQUINAVIR]", "values": [{"measurement": "IC50", "setting": "[1]", "value": 20, "unit": "nM"}, {"measurement": "IC50", "setting": "[2]", "value": 20, "unit": "nM"}]}, {"smiles": "CC(C)[C@H](NC(=O)N(C)Cc1ccccn1)C(=O)NC[C@@H]1O[C@@H]1[C@H](Cc1ccccc1)NC(=O)[C@H](NC(=O)N(C)Cc1ccccn1)C(C)C", "values": [{"measurement": "Ki", "setting": "[3]", "value": 16, "unit": "nM"}, {"measurement": "K inact/Ki", "setting": "[4]", "value": 367000, "unit": "M⁻¹ s⁻¹"}]}, {"smiles": "CC(C)[C@H](NC(=O)OCc1ccccc1)C(=O)NC(C)[C@@H]1O[C@@H]1[C@H](Cc1ccccc1)NC(=O)[C@H](NC(=O)OCc1ccccc1)C(C)C", "note": "(some centres undefined)", "values": [{"measurement": "Ki", "setting": "[3]", "value": 4, "unit": "nM"}, {"measurement": "K inact/Ki", "setting": "[4]", "value": 667000, "unit": "M⁻¹ s⁻¹"}]}, {"smiles": "CC(C)[C@H](NC(=O)OCc1ccccc1)C(=O)NC[C@@H]1O[C@@H]1[C@H](Cc1ccccc1)NC(=O)[C@H](NC(=O)OCc1ccccc1)C(C)C", "values": [{"measurement": "IC50", "setting": "[1]", "value": 30, "unit": "nM"}, {"measurement": "Ki", "setting": "[3]", "value": 0.1, "unit": "nM"}, {"measurement": "CT50", "setting": "[6]", "value": ">100", "unit": "µM"}, {"measurement": "K inact/Ki", "setting": "[4]", "value": "2.5e+06", "unit": "M⁻¹ s⁻¹"}, {"measurement": "CT50", "setting": "[7]", "value": ">100", "unit": "µM"}, {"measurement": "IC50", "setting": "[8]", "value": 30, "unit": "nM"}]}]}
